In article PMC9881143 (2023):

Tests used:
[1] = test system: THF-II-lotiTL (RNA, riboswitch) GGCGUGGUCCGUUCAACUCGUUCCUCGAAAGAGGAACUACGGGAGACGCC; test: X-ray crystallography; details: co-crystal, 0.1 M sodium citrate pH 6.5, 1.5-2.5 M ammonium sulfate, 16 °C; RNA:ligand 1:5
[2] = test system: THF-II-lotiTL C22G mutant (THF-II-lotiTL-C22G) (RNA, riboswitch) GGCGUGGUCCGUUCAAGUCGUUCCUCGAAAGAGGAACUACGGGAGACGCC; test: ITC; details: K+ 100 mM, Mg2+ (concentration not stated for this titration); 20 mM Tris-HCl pH 7.5, 1 mM TCEP, 25 °C; 0.75 mM ligand in syringe into 30 μM RNA
[3] = test system: THF-II-lotiTL C22U mutant (RNA, riboswitch) GGCGUGGUCCGUUCAAUUCGUUCCUCGAAAGAGGAACUACGGGAGACGCC; test: ITC; details: K+ 100 mM, Mg2+ (concentration not stated for this titration); 20 mM Tris-HCl pH 7.5, 1 mM TCEP, 25 °C; 0.75 mM ligand in syringe into 30 μM RNA
[4] = test system: THF-II-lotiTL U44C mutant (RNA, riboswitch) GGCGUGGUCCGUUCAACUCGUUCCUCGAAAGAGGAACCACGGGAGACGCC; test: ITC; details: K+ 100 mM, Mg2+ (concentration not stated for this titration); 20 mM Tris-HCl pH 7.5, 1 mM TCEP, 25 °C; 0.75 mM ligand in syringe into 30 μM RNA
[5] = test system: THF-II-lotiTL U44A mutant (RNA, riboswitch) GGCGUGGUCCGUUCAACUCGUUCCUCGAAAGAGGAACAACGGGAGACGCC; test: ITC; details: K+ 100 mM, Mg2+ (concentration not stated for this titration); 20 mM Tris-HCl pH 7.5, 1 mM TCEP, 25 °C; 0.75 mM ligand in syringe into 30 μM RNA

| binding [1] | binding [2] | binding [3] | binding [4] | binding [5] | SMILES |
| --- | --- | --- | --- | --- | --- |
| yes | – | – | – | – | Nc1nc2[nH]ccc2c(=O)[nH]1 |
| yes | – | – | – | – | Nc1nc2c(c(=O)[nH]1)N=C([C@H](O)[C@H](O)CO)CN2 |
| – | no | no | no | no | Nc1nc2c(c(=O)[nH]1)N[C@@H](CNc1ccc(C(=O)N[C@@H](CCC(=O)O)C(=O)O)cc1)CN2 |
| yes | – | – | – | – | C[C@H](O)[C@H](O)[C@H]1CNc2nc(N)[nH]c(=O)c2N1 |
